The results in this text go back to US9783551B2, “Pyranochromenyl phenol derivative, and pharmaceutical composition for treating metabolic syndrome or inflammatory disease” (GLACEUM, INC., priority 2013, dated 2017).

Molecules are shown by their SMILES.

The subject of one assay is db/db mice. Kind of assay: Anti-diabetic effects for db/db mice (glycosylated hemoglobin). The class given is in vivo, C57BLKS/J-db/db mice. The method, then: 5-week-old male C57BLKS/J-db/db mice (Central Lab. Animal Inc.) were purchased and acclimatized for 2 weeks, and then used in this experiment. Samples were exactly taken from the compounds prepared in Examples 4 and 15 of the present invention (Compounds 5 and 16) according to the administration dose and put into Falcon tubes, a 0.5% methyl cellulose aqueous solution stored refrigerated was placed at room temperature to allow the excipients to be warmed at room temperature, 16 ml of each of the excipients was added to a 50 ml Falcon tube, and a vortex mixer was used to primarily mix the ingredients in a soft manner, and then a suspension was obtained and homogenized by treating the sample for 3 minutes using a homogenizer (30,000 rpm, CPT-1600E, Kinemtica, Switzerland), and then ultrasonically treated for 30 minutes. The sample thus prepared was administered through oral gavage using a disposable plastic syringe equipped with a sonde once daily for 42 days (6 weeks).
The glycosylated hemoglobin (HbA1c) was measured while the db/db mice were bred. The gyclosylated hemoglobin was measured at 2 days prior to group separation, 4 weeks after administration, and 6 weeks after administration, and was measured by fasting the mice for 4 hours on the measurement date, collecting blood from the caudal vein before each material was administered, and using a device for measuring glycosylated hemoglobin (SD A1cCare, SD Biosensor, Inc., Korea).

The target of another assay is PTP1B (Homo sapiens (Human), UniProt P18031). Nature of the assay: Experiment of PTP1B inhibition (p-NPP dephosphorylation). It counts as biochemical. The following applies: 2 mM p-NPP substrate, 30° C., 30 minutes. The essentials:
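PTP1B reacted with 2 mM p-NPP in 50 mM citrate pH 6.0, 0.1 M NaCl, 1 mM EDTA, 1 mM DTT plus compound at various concentrations, 30 °C for 30 min. Reaction stopped with 1 N NaOH; p-nitrophenol absorbance gives IC50.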

The next assay has as its system C2C12 cells. Kind of assay: Glucose uptake (2-NBDG) in C2C12 cells. The class given is cell-based. Particulars: compared with Rosiglytazone and Metformin. On the procedure: In terms of capacity of glucose uptake in C2C12 cells, the compound (Compound 15) of Example 14 of the present invention was compared with the existing Rosiglytazone and Metformin which were used or are currently used as a therapeutic agent for diabetes. The C2C12 cell was cultured in a Dulbecco's modified eagle medium (DMEM) supplemented with 10% fetal bovine serum (FBS), penicillin (120 unit/mL), and streptomycin (75 μg/mL), the medium used for differentiation was a DMEM medium supplemented with 1% horse serum, and the C2C12 cell was cultured in the DMEM medium for 4 days. The cell thus cultured was treated with Compound 15 in a low-glucose, serum-free medium supplemented with 2-[N-(7-nitrobenz-2-oxa-1,3-diazol-4-yl)amino]-2-deoxy-d-glucose (2-NBDG) for 24 hours to measure the glucose absorbance at an excitation wavelength of 485 nm and an emission wavelength of 535 nm using a fluorescent detector. The same experiment was performed on Rosiglytazone and Metformin.

Sequence of PTP1B (P18031 whole entry, species assumed): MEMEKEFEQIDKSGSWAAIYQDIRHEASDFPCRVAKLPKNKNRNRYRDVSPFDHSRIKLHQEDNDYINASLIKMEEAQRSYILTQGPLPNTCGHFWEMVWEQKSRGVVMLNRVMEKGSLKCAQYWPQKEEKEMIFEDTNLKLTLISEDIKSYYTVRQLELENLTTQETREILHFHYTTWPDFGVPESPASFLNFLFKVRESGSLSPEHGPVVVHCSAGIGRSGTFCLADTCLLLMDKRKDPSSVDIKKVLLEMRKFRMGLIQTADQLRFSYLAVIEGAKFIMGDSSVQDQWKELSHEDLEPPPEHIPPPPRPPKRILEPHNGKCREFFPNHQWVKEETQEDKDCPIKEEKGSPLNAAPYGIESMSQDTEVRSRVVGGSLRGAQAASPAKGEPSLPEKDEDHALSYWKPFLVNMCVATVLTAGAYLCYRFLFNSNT

The IC50 is the concentration that inhibits the measured activity by half. Consider `CCCc1ccc(C2COc3c(ccc4c3CCC(C)(C)O4)C2)c(O)c1` (stereo not drawn) [Compound 5, 3-(2-hydroxy-4-propylphenyl)-8,8-dimethyl-2,3,4,8,9,10-hexahydropyrano [2,3-f] chromene], for which the “HbA1c (%) 4 weeks” value with db/db mice (4 weeks after administration, 300 mg/kg oral once daily) was determined as 5.3%. In addition, the “HbA1c (%) 6 weeks” value with db/db mice (6 weeks after administration, 300 mg/kg oral once daily) worked out at 5.7%. For the same compound, the “HbA1c (%) Before administration” value in the assay on db/db mice (before administration, 300 mg/kg group) amounted to 4.7%. The IC50 at PTP1B was 2.8 µM.
Consider `CCOc1ccc(C2COc3c(ccc4c3CCC(C)(C)O4)C2)c(O)c1` (stereo not drawn) [Compound 15, 3-(2-hydroxy-4-ethoxyphenyl)-8,8-dimethyl-2,3,4,8,9,10-hexahydropyrano [2,3-f] chromene], for which, in the assay on C2C12 cells, the “capacity of promoting glucose uptake, in words” value is “better than that of the existing therapeutic agent for diabetes”. In addition, inhibition at PTP1B was half-maximal at 8.6 µM (IC50).
